In patent US20110245228A1, “PROTEIN KINASE C ACTIVITY ENHANCER CONTAINING ALKYL ETHER DERIVATIVE OR SALT THEREOF” (Toyama Chemical Co., Ltd., priority 2006, published 2011):

Biological target: T1, PKCε (Rattus norvegicus, UniProt P09216)
T1 construct: endogenous in cells; host or cells: primary cultured cerebral cortex cells from 18-day Wistar/ST rat fetuses
T1 sequence (P09216 1-737): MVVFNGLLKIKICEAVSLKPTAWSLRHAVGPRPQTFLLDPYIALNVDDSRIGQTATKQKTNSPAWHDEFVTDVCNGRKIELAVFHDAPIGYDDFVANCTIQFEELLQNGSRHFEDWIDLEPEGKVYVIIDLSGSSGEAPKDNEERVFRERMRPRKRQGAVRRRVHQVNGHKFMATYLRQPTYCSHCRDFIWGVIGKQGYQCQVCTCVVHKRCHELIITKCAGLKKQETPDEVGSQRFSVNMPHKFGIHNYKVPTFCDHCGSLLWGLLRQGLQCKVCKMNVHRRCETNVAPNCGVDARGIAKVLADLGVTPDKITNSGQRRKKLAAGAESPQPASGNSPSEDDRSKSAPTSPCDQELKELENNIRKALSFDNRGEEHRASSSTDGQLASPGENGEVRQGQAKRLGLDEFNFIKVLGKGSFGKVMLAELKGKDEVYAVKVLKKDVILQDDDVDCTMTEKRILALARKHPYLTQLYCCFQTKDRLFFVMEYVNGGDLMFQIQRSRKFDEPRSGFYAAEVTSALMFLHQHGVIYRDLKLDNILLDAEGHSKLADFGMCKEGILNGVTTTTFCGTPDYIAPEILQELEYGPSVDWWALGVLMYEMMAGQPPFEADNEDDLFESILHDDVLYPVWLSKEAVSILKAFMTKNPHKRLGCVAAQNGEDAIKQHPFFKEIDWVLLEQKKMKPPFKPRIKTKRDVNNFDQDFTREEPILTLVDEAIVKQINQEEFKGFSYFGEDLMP
Test: PKC activity enhancing effect in cultured cells (PKCε migration from cytosol to membrane fraction, western blotting)
Format: cell-based
Conditions: cultured cerebral cortex cells of Wistar/ST rat fetuses, 0.1 μmol/L in terms of T-817
Procedure: The PKC activity was determined, according to the method of Etcheberrigaray et al. (Proceedings of the National Academy of Sciences of the United States of America, 2004, Vol. 101, No. 30, p. 11141-11146), as applicable. At the time of activation, PKC migrates from the cytoplasm to membranes. The PKC level in the membrane fraction over that in the cytosol fraction was taken as the index of PKC activation. In this experiment, the activity of PKCε, a known isoform of PKC, was measured.
Cultured cells were prepared following the method of Hirata et al. (J. Pharmacol. Exp. Ther., 2005, Vol. 314, No. 1, p. 252-259). […]
On Day 8 from the start of the culturing, T-817MA was added to the cells to a final concentration of 0.1 μmol/L, in terms of T-817. […] The protein concentration in the cytosol fraction and the membrane fraction was measured, and the protein content in each sample was adjusted to a certain constant level with the extraction buffer or the extraction buffer containing Triton X-100. […] Then, after washing with PBST, the membrane was treated with ECL plus reagent (manufactured by GE Healthcare Bio-Sciences) and the luminescence was detected by a Lumino Image Analyzer. […]

Compound: OC1CN(CCCOCCc2ccc3sccc3c2)C1 [T-817MA, 1-(3-(2-(1-benzothiophen-5-yl)ethoxy)propyl)azetidin-3-ol]
- PKCε migration from the cytoplasm to membranes (index of PKC activation) (2 hours after treatment): migrated from the cytoplasm to membranes
- PKCε migration from the cytoplasm to membranes (index of PKC activation) (4 hours after treatment): migrated from the cytoplasm to membranes
